Laboratory results as given in patent EP0415598A1, “Cosmetic composition” (UNILEVER PLC, priority 1989, dated 1991).

Test system: hair growth
Test: Rat Hair Growth Test (topical application to clipped skin, cumulative hair weight)
Type: in vivo, male albino Wistar rats
Method: The effect of compounds on hair growth was assessed using male albino Wistar rats as an animal model. The rats were chosen from as few litters as possible and were each approximately 42 days of age at the start of the test. Each rat was housed individually to prevent licking.
In each comparison, 10 rats were used in each group and hair growth was assessed as follows:
A small patch of normal skin (4cm x 4cm) on the upper back of each rat was clipped at the start and 0.3 ml of a hair growth stimulant composition (or a control) applied topically twice daily and once on Saturdays and Sundays to each clipped area. The concentration of test compound in the composition was chosen from 0.01 to 20% by weight.
In any case, this concentration will lie within the range of from 0.01 to 20% by weight as stipulated above.
Hair was clipped from the area of the patch twice weekly, collected and weighed at each time point over a standard period of 3 months, and cumulative hair weight calculated. […] A positive response, i.e. an increase of at least 10% by weight of hair after 3 months treatment, compared with a control indicates the potential of the test compound to prevent hair loss and/or reverse baldness in human subjects.
In this example, the effect of topical application of N-acetyl glycine is shown. […]

CC(=O)NCC(=O)O [N-acetyl glycine]
increase in hair growth (10% (w/v) N-acetyl glycine vs control (distilled water, pH 4.2), after 58 days, statistically significant): 23%
Mean Cumulative Hair Weight (mg) ± sd, after 58 days (10% (w/v) solution in distilled water adjusted to pH 4.2 with potassium hydroxide, topical, 0.3 ml twice daily, 58 days, control 505.9 ± 103.1, p =0.02 vs control): 622.8 ± 101.11 mg
